Experimental data published in ChEMBL document CHEMBL1126817, “Synthesis, Biological Properties, and Structure-Activity Relationships of Quinoxaline Angiotensin II Receptor Antagonists” (Bioorg Med Chem Lett, 1993).

Columns and labels:
Angiotensin II receptor = target: T1, Angiotensin II receptor (Rattus norvegicus, UniProt P29089+P25095+P35351); experiment: Tested for binding affinity by measuring displacement of [125I]-Sar1 Ile8 angiotensin II from rat adrenal cortical membranes; assay type: cell membranes, Membrane
T1 sequence (P29089 whole entry): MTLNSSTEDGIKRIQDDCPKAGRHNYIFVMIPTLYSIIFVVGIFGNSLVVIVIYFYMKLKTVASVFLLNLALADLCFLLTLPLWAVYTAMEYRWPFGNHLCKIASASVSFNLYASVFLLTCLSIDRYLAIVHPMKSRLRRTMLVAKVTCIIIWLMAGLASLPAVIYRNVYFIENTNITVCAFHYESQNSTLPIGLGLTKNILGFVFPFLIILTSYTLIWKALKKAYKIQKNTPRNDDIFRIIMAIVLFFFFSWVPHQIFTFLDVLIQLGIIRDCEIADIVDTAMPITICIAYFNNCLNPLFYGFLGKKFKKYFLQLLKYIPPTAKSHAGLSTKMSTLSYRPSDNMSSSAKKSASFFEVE
T1 sequence (P25095 whole entry): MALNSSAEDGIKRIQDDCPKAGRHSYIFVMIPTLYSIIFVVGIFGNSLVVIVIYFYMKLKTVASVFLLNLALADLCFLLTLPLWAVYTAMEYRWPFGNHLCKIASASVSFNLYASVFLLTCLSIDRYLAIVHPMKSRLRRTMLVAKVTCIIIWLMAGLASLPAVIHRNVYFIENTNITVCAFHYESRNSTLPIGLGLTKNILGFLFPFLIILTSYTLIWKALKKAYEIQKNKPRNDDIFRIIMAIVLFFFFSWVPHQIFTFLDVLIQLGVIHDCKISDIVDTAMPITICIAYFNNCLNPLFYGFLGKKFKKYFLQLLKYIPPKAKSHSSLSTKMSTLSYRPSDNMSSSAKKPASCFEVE
T1 sequence (P35351 whole entry): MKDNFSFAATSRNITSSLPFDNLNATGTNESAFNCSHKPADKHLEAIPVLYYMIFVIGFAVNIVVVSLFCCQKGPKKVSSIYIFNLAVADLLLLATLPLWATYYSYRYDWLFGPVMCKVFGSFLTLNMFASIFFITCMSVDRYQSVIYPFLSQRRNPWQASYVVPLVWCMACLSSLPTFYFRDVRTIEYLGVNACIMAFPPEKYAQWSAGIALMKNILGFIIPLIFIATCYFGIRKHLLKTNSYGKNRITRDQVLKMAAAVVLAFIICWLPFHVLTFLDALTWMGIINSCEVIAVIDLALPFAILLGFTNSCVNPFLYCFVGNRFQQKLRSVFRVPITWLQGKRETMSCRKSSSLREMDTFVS

Rattus norvegicus [1] = species on record: Rattus norvegicus; experiment: Tested for depression of contractions elicited by angiotensin II receptor in isolated rat aorta; assay type: functional
Rattus norvegicus [2] = experiment: Compound was tested for inhibition of angiotensin II induced pressor response after intravenous administration in rats.; assay type: functional
Rattus norvegicus [3] = experiment: Tested for percent inhibition of compound against angiotensin II induced pressor response after 3 umol/kg intravenous administration at 70 min in rats; assay type: functional
Rattus norvegicus [4] = experiment: Tested for percent inhibition of compound against angiotensin II induced pressor response after 1 umol/kg intravenous administration in rats; inactive; assay type: functional

Structure (SMILES) | Ki (Angiotensin II receptor) | Kb (Rattus norvegicus [1]) | ED50 (Rattus norvegicus [2]) | inhibition in vivo at 3 µmol/kg (Rattus norvegicus [3]) | inhibition in vivo at 1 µmol/kg (Rattus norvegicus [4])
CCCCc1nc2ccccc2nc1Cc1ccc(-c2ccccc2-c2nn[nH]n2)cc1 | 7 nM | 32 nM |  |  | 
CCCCc1nc2ccccc2[n+]([O-])c1Cc1ccc(-c2ccccc2-c2nn[nH]n2)cc1 | 2.1 nM | 5.3 nM |  |  | 
CCCCc1nc2cccc(C(=O)O)c2nc1Cc1ccc(-c2ccccc2-c2nn[nH]n2)cc1 | 6.9 nM | 0.49 nM |  |  | 7%

More lines, main results first:

Ki (Angiotensin II receptor) | Structure (SMILES) | Kb (Rattus norvegicus [1]) | ED50 (Rattus norvegicus [2]) | inhibition in vivo at 3 µmol/kg (Rattus norvegicus [3]) | inhibition in vivo at 1 µmol/kg (Rattus norvegicus [4])
29 nM | CCCCc1c(Cc2ccc(-c3ccccc3-c3nn[nH]n3)cc2)nc2ccccc2[n+]1[O-] | 52 nM |  |  | 
2.6 nM | CCCCc1c(Cc2ccc(-c3ccccc3-c3nn[nH]n3)cc2)[n+]([O-])c2ccccc2[n+]1[O-] | 2.1 nM | 1.8 µmol/kg | 0% | 
